“And” between values parts separate entries of the source, which are not always exact repeats. Equal entries are not always repeated.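 Cells were grown in 96-well plates and exposed to each compound for 48 hours at five concentrations; endpoints were interpolated linearly between bracketing concentrations, or set to the highest concentration if not reached. GI50 marks 50% less growth. Definition used: TGI = concentration required for complete inhibition of growth.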
Experiments:
Assay in all cases: NCI-60 cell line screen, 48 h
CCRF-CEM leukemia = tested on: CCRF-CEM leukemia
COLO 205 colon = tested on: COLO 205 colon
HT29 colon = tested on: HT29 colon
M14 melanoma = tested on: M14 melanoma
NCI-H460 lung = tested on: NCI-H460 lung
NCI/ADR-RES ovarian = tested on: NCI/ADR-RES ovarian
RPMI-8226 leukemia = tested on: RPMI-8226 leukemia
RXF 393 renal = tested on: RXF 393 renal
T-47D breast = tested on: T-47D breast
NCI-H226 lung = tested on: NCI-H226 lung

Cc1cc2ccccc2n2c1nc1ccc(O)cc12
TGI (CCRF-CEM leukemia): > 10 µM | TGI (COLO 205 colon): > 10 µM | TGI (HT29 colon): > 10 µM | TGI (M14 melanoma): > 10 µM | TGI (NCI-H460 lung): > 10 µM | TGI (NCI/ADR-RES ovarian): > 10 µM | TGI (RPMI-8226 leukemia): > 10 µM | TGI (RXF 393 renal): > 10 µM | TGI (T-47D breast): > 10 µM

CC(=O)OC1C2CCC3CC2C2(SCCS2)C31 (configuration not stated)
TGI (COLO 205 colon): > 100 µM | TGI (HT29 colon): > 100 µM | TGI (M14 melanoma): > 100 µM | TGI (NCI-H226 lung): > 100 µM | TGI (NCI-H460 lung): > 100 µM | TGI (NCI/ADR-RES ovarian): > 100 µM | TGI (RPMI-8226 leukemia): > 100 µM | TGI (RXF 393 renal): > 100 µM | TGI (T-47D breast): > 100 µM

Cc1c2cc[n+](C)cc2c(C)c2c1[nH]c1ccc(OCC(F)(F)F)cc12
TGI (CCRF-CEM leukemia): > 100 µM | TGI (HT29 colon): 8.14 µM and > 55.1 µM | GI50 (M14 melanoma): 11.6 µM and > 94.3 µM | TGI (M14 melanoma): > 100 µM | GI50 (NCI-H226 lung): 0.581 µM | TGI (NCI-H226 lung): 1.69 µM and 3.75 µM | GI50 (RPMI-8226 leukemia): 4.27 µM and 23.7 µM | TGI (RPMI-8226 leukemia): 43 µM and > 88 µM | GI50 (RXF 393 renal): > 100 µM | TGI (RXF 393 renal): > 100 µM

CCOC(=O)C1=C(N2CCCC2)C(=O)C(C(=O)OCC)C1 (configuration not stated)
TGI (COLO 205 colon): > 100 µM | TGI (M14 melanoma): > 100 µM | TGI (NCI-H226 lung): > 100 µM | TGI (NCI-H460 lung): > 100 µM | TGI (NCI/ADR-RES ovarian): > 100 µM | TGI (RPMI-8226 leukemia): > 100 µM | TGI (RXF 393 renal): > 100 µM | TGI (T-47D breast): > 100 µM

C=C1C(=O)OC2C[C@@]3(C)CCCC(=C)C3CC12 (some centres not stated)
TGI (CCRF-CEM leukemia): > 100 µM | TGI (COLO 205 colon): 6.85 µM | TGI (HT29 colon): 24 µM | TGI (M14 melanoma): 20.6 µM | TGI (NCI-H226 lung): 26 µM | TGI (NCI-H460 lung): 18.1 µM | TGI (RXF 393 renal): 10.5 µM

CCOC(=O)c1c(SC(=O)c2ccc(Cl)cc2)n(-c2ccccc2)c(=S)n(-c2ccccc2)c1=O
TGI (CCRF-CEM leukemia): > 100 µM | TGI (COLO 205 colon): > 100 µM | TGI (HT29 colon): > 100 µM | TGI (M14 melanoma): > 100 µM | TGI (NCI-H226 lung): > 100 µM | TGI (NCI-H460 lung): > 100 µM | TGI (NCI/ADR-RES ovarian): > 100 µM | TGI (RXF 393 renal): > 100 µM | TGI (T-47D breast): > 100 µM

CC(C)(C1=NC(C(C)(C)C)CO1)C1=N[C@@H](C(C)(C)C)CO1 (some centres not stated)
TGI (CCRF-CEM leukemia): > 100 µM | TGI (COLO 205 colon): > 100 µM | TGI (HT29 colon): > 100 µM | TGI (M14 melanoma): > 100 µM | TGI (NCI-H226 lung): > 100 µM | TGI (NCI-H460 lung): > 100 µM | TGI (RPMI-8226 leukemia): > 100 µM | TGI (RXF 393 renal): > 100 µM

CSCCC(NC(=O)C(Cc1c[nH]c2ccccc12)NC(=O)CCNC(=O)OC(C)(C)C)C(=O)NC(CC(=O)O)C(=O)NC(Cc1ccccc1)C(N)=O (configuration not stated)
TGI (CCRF-CEM leukemia): > 50 µM | TGI (COLO 205 colon): > 50 µM | TGI (HT29 colon): > 50 µM | TGI (M14 melanoma): > 50 µM | TGI (NCI-H226 lung): > 50 µM | TGI (NCI/ADR-RES ovarian): > 50 µM | TGI (RPMI-8226 leukemia): > 50 µM | TGI (RXF 393 renal): > 50 µM | TGI (T-47D breast): > 50 µM

COc1ccc(/C=C/C(=O)c2cc(CN(C)C)c(O)c(CN(C)C)c2)cc1
TGI (CCRF-CEM leukemia): > 100 µM | TGI (COLO 205 colon): 32.5 µM | TGI (HT29 colon): > 100 µM | TGI (NCI-H226 lung): > 100 µM | TGI (NCI-H460 lung): 49.3 µM | TGI (NCI/ADR-RES ovarian): > 100 µM | TGI (RPMI-8226 leukemia): > 100 µM | TGI (RXF 393 renal): > 100 µM | TGI (T-47D breast): > 100 µM

C/C(N=NS(=O)(=O)c1c(C)cc(C)cc1C)=C1\C=CC=CN1O
TGI (CCRF-CEM leukemia): > 100 µM | TGI (HT29 colon): > 100 µM | TGI (M14 melanoma): > 100 µM | TGI (NCI-H460 lung): > 100 µM | TGI (RPMI-8226 leukemia): > 100 µM

CC(C)(C)N=C1C(=O)C2(C)CCC1C2(C)C (configuration not stated)
TGI (COLO 205 colon): > 100 µM | TGI (HT29 colon): > 100 µM | TGI (M14 melanoma): > 100 µM | TGI (NCI-H226 lung): > 100 µM | TGI (NCI-H460 lung): > 100 µM | TGI (NCI/ADR-RES ovarian): > 100 µM | TGI (RPMI-8226 leukemia): > 100 µM | TGI (RXF 393 renal): > 100 µM | TGI (T-47D breast): > 100 µM

O=C(CCC(NC(=O)OCc1ccccc1)C(=O)OCc1ccccc1)Nc1cccc(OCc2ccccc2)c1 (configuration not stated)
TGI (CCRF-CEM leukemia): 99.4 µM | TGI (COLO 205 colon): 31.9 µM | TGI (HT29 colon): 70.9 µM | TGI (M14 melanoma): 38.2 µM | TGI (NCI-H226 lung): > 100 µM | TGI (NCI-H460 lung): 53.3 µM | TGI (NCI/ADR-RES ovarian): > 100 µM | TGI (RXF 393 renal): 46.8 µM | TGI (T-47D breast): > 100 µM

CC(=O)N1CCOC12N=NC(C)(C)O2 (configuration not stated)
TGI (COLO 205 colon): > 100 µM | TGI (HT29 colon): > 100 µM | TGI (M14 melanoma): > 100 µM | TGI (NCI-H460 lung): > 100 µM | TGI (NCI/ADR-RES ovarian): > 100 µM | TGI (RPMI-8226 leukemia): > 100 µM | TGI (T-47D breast): > 100 µM

O=C(NNC(=O)c1ccncc1)C(=O)Nc1cc(Cl)c(Cl)cc1Cl
TGI (HT29 colon): > 100 µM | TGI (M14 melanoma): > 100 µM | TGI (NCI-H226 lung): > 100 µM | TGI (NCI-H460 lung): > 100 µM | TGI (NCI/ADR-RES ovarian): > 100 µM | TGI (RPMI-8226 leukemia): > 100 µM | TGI (RXF 393 renal): > 100 µM | TGI (T-47D breast): > 100 µM

Cc1cc2ccccc2oc(=O)/c1=N\Nc1ccccc1
TGI (CCRF-CEM leukemia): > 100 µM | TGI (COLO 205 colon): > 100 µM | TGI (HT29 colon): > 100 µM | TGI (M14 melanoma): > 100 µM | TGI (NCI-H226 lung): > 100 µM | TGI (NCI-H460 lung): > 100 µM | TGI (NCI/ADR-RES ovarian): > 100 µM | TGI (RPMI-8226 leukemia): > 100 µM | TGI (RXF 393 renal): 88.4 µM

O=C(Oc1cncc(Cl)c1)c1cc2ccccc2sc1=O
TGI (COLO 205 colon): > 100 µM | TGI (HT29 colon): > 100 µM | TGI (M14 melanoma): > 100 µM | TGI (NCI-H226 lung): 57.1 µM | TGI (NCI-H460 lung): > 100 µM | TGI (NCI/ADR-RES ovarian): > 100 µM | TGI (RPMI-8226 leukemia): > 100 µM | TGI (RXF 393 renal): 91.1 µM | TGI (T-47D breast): > 100 µM

C[C@H](NC(=O)C(C)(Cc1ccc(O)cn1)NC(=O)c1ccccc1)c1ccccc1 (some centres not stated)
TGI (CCRF-CEM leukemia): > 100 µM | TGI (COLO 205 colon): > 100 µM | TGI (HT29 colon): > 100 µM | TGI (M14 melanoma): > 100 µM | TGI (NCI-H226 lung): > 100 µM | TGI (NCI/ADR-RES ovarian): > 100 µM | TGI (RPMI-8226 leukemia): > 100 µM | TGI (RXF 393 renal): > 100 µM | TGI (T-47D breast): > 100 µM

CCOC(=O)c1cnc2n(c1=O)[C@H]1CCCC[C@@H]1N2
TGI (CCRF-CEM leukemia): > 100 µM | TGI (COLO 205 colon): > 100 µM | TGI (HT29 colon): > 100 µM | TGI (M14 melanoma): > 100 µM | TGI (NCI-H226 lung): > 100 µM | TGI (NCI-H460 lung): > 100 µM | TGI (NCI/ADR-RES ovarian): > 100 µM | TGI (RPMI-8226 leukemia): > 100 µM | TGI (T-47D breast): > 100 µM

Nc1ccnc2c1ncn2[C@H]1C[C@H](O)[C@@H](CO)O1
TGI (CCRF-CEM leukemia): > 100 µM | TGI (COLO 205 colon): > 100 µM | TGI (HT29 colon): > 100 µM | TGI (M14 melanoma): > 100 µM | TGI (NCI-H226 lung): > 100 µM | TGI (NCI-H460 lung): > 100 µM | TGI (NCI/ADR-RES ovarian): > 100 µM | TGI (RXF 393 renal): > 100 µM | TGI (T-47D breast): > 100 µM

CCC1OC2(C)CC(C#N)(C#N)C1(C#N)C(=N)O2 (configuration not stated)
TGI (CCRF-CEM leukemia): > 100 µM | TGI (COLO 205 colon): > 100 µM | TGI (M14 melanoma): > 100 µM | TGI (RXF 393 renal): > 100 µM | TGI (T-47D breast): > 100 µM

CN1Cc2ccccc2C2(COc3ccccc3C2=O)C1 (configuration not stated)
TGI (CCRF-CEM leukemia): > 100 µM | TGI (HT29 colon): > 100 µM | TGI (M14 melanoma): > 100 µM | TGI (NCI-H226 lung): > 100 µM | TGI (NCI-H460 lung): > 100 µM | TGI (RPMI-8226 leukemia): > 100 µM | TGI (RXF 393 renal): > 100 µM

O=Cn1c2ccccc2c2ccccc21
TGI (CCRF-CEM leukemia): > 100 µM | TGI (COLO 205 colon): > 100 µM | TGI (M14 melanoma): > 100 µM | TGI (NCI-H460 lung): > 100 µM | TGI (RPMI-8226 leukemia): > 100 µM | TGI (RXF 393 renal): > 100 µM

C[C@@H]1C[C@@H]2OC(=O)[C@]3(C)[C@H]2[C@@H](OC3(C)O)[C@]2(C)C(=O)C=C[C@@H]12 (some centres not stated)
TGI (CCRF-CEM leukemia): 31.8 µM | TGI (COLO 205 colon): 32 µM | TGI (HT29 colon): 35.1 µM | TGI (M14 melanoma): 41.8 µM | TGI (NCI-H226 lung): > 100 µM | TGI (NCI/ADR-RES ovarian): > 100 µM | TGI (RPMI-8226 leukemia): 17.7 µM | TGI (RXF 393 renal): 46 µM | TGI (T-47D breast): 44.5 µM

Clc1cc(Cl)nc(Nc2ccc3c(c2)CCC3)n1
TGI (CCRF-CEM leukemia): 72.8 µM | TGI (COLO 205 colon): 46.9 µM | TGI (HT29 colon): 51.5 µM | TGI (M14 melanoma): > 100 µM | TGI (NCI-H226 lung): > 100 µM | TGI (NCI-H460 lung): > 100 µM | TGI (NCI/ADR-RES ovarian): > 100 µM | TGI (RPMI-8226 leukemia): 42 µM | TGI (T-47D breast): > 100 µM

— PubChem BioAssay (NCI)
